Experimental data published in patent US11440939B2, “Anticancer peptides” (IDP DISCOVERY PHARMA, S.L., priority 2017, dated 2022).
Numbered stars: 1 amine (or outer) side, 2 acyl side, 3 side chain; on linkers, the order of the positions; unused ones are H or OH. Bridge positions count the residues as written; N and C are the ends. Square brackets hold non-standard residues; d marks the D form. Peptide text beside a SMILES is read from it. ξ: configuration not given here. ξαMeNle(6-ylidene) = CC(CCCC=[*:3])(N[*:1])C(=O)[*:2]; X1 = CC(CCCCCCC=[*:3])(N[*:1])C(=O)[*:2]

How the values were obtained:
Type in all cases: cell-based
MCF-7 = system: MCF-7
Experimental: MCF-7, epithelial (breast cancer), ECACC: 86012803;
(§1) Cell line MCF-7 was cultured in incubator under CO2 (6%) at 37° C. in DMEM high glucose (Dulbecco's Modified Eagle Solution, Gibco-BRL 31966-21) medium with 10% fetal bovine serum inactivated (FBS) (Gibco-BRL 10106-169). Cell lines HL-60, NCI-H524, NCI-H526, NCI-H69, NCI-H82, NCI-H187 and H5B were cultured in an incubator at 37° C. in RPMI-1640 (Sigma R8758) medium with 10% of fetal bovine serum inactivated (FBS) and 2 mM glutamine (Sigma G7513). Cell line NCI-H510A was cultured in incubator in F12K medium with 10% of fetal bovine serum inactivated (FBS). […]
(§2) During the amplification step and the assays, adherent cells were rinsed with DPBS (Dulbecco's Phosphate Buffered Saline, Sigma D1283) three times and afterward treated for 5 minutes with trypsin ([…]) (Gibco-BRL, 15400054) in solution of DPBS at 37° C., and, once detached, transferred in the culturing medium. […] Cells were counted in a Neubauer chamber after labelling with Tripan-Blue. […]
(§3) Cells were incubated during 72 h in incubator under CO2 atmosphere at 37° C. Cell viability was measured by means of MTT (3-(4,5-dimethylthiazol-2-yl)-2,5-diphenyltetrazolium bromide) assay, Alamar Blue® (Biosource DAL1100) and Hexosaminidase activity test, consecutively, following manufacturer instructions.
(§4) MTT: 1. […] Absorbance at 570 nm was finally measured. […]

GBM-18 = system: GBM-18
Experimental: GMB-18, epithelial (glioblastoma, GMB), from surgical specimens from patients;
as §1
(§5) During the amplification step and the assays, adherent cells were rinsed with DPBS (Dulbecco's Phosphate Buffered Saline, Sigma D1283) three times and afterward treated for 5 minutes with trypsin ([…]) (Gibco-BRL, 15400054) in solution of DPBS at 37° C., and, once detached, transferred in the culturing medium. […] Cells were counted in a Neubauer chamber after labelling with Tripan-Blue.
as §3, with “instructions. […]” for “instructions.”

NCI-H510A = settings: 72 h
Experimental: NCI-510A, epithelial (small cell lung cancer, SCLC), ATCC-HBT-124; and Hepatocytes (normal liver), from a donor was provided by Foundation DTI-Donation & Transplantation Institute from surgical wastes and from organs not suitable for transplantation
(§6) Cell line MCF-7 was cultured in incubator under CO2 (6%) at 37° C. in DMEM high glucose (Dulbecco's Modified Eagle Solution, Gibco-BRL 31966-21) medium with 10% fetal bovine serum inactivated (FBS) (Gibco-BRL 10106-169). Cell lines HL-60, NCI-H524, NCI-H526, NCI-H69, NCI-H82, NCI-H187 and H5B were cultured in an incubator at 37° C. in RPMI-1640 (Sigma R8758) medium with 10% of fetal bovine serum inactivated (FBS) and 2 mM glutamine (Sigma G7513). Cell line NCI-H510A was cultured in incubator in F12K medium with 10% of fetal bovine serum inactivated (FBS). Cell line GBM-18 and GBM-27 were cultured in incubator under CO2 (6%) at 37° C. in complete medium (Neurobasal+B27+Glutamax+Growth factors).
(§7) During the amplification step and the assays, adherent cells were rinsed with DPBS (Dulbecco's Phosphate Buffered Saline, Sigma D1283) three times and afterward treated for 5 minutes with trypsin ([…]) (Gibco-BRL, 15400054) in solution of DPBS at 37° C., and, once detached, transferred in the culturing medium. No-adherent cells were centrifuged and transferred in the culturing medium. Cells were counted in a Neubauer chamber after labelling with Tripan-Blue.
MCF-7, NCI-H187, NCI-H69, NCI-H526 and H5B cells were seeded at a density of 5000 cells/well; NCI-H524 and NCI-H82 were seeded at a density of 2500 cells/well; HL-60 and NCI-H510A at 10000 cells/well in 100 μl of medium in 96 well plates. After 24 h, the compounds to be tested were added to calculate the dose/response curve at the starting concentration of 100 μM with serial dilutions (1:1). Controls were the untreated cells. Each experiment was performed in triplicate.
as §3
MTT: 1. Stock solution of MTT (475989 Calbiochem) was 5 mg/ml in PBS 1×. As negative control (experiment noise) 3 wells were treated with 20 μl/well of a solution of SDS 10% in H2O. The same control was used for Alamar Blue/Hexosaminidase. 10 μl/well of MTT solution were added and the plate was incubated for 3-4 hr. The medium was discarded and 100 μl of extracting buffer (PBS 1×, 15% SDS, 50% […] N,N-Dimethylformamide, pH 4,7) were added to each well. Plates were incubated for 16 h at room temperature under orbital shaking. Absorbance at 570 nm was finally measured.
(§8) Alamar Blue: 10 μl Alamar Blue solution was added to each well and the plates were incubated for […] in the incubator. Fluorescence ratio at 535/590 (excitation/emission) was measured in Cytofluor (Millipore) fluorimeter. Blank control was determined by lysis of untreated cells with con 2% of Triton X100, right before adding Alamar Blue solution.
Hexosaminidase activity test: after Alamar Blue lecture, medium was discarded and plates were rinsed once with PBS. 60 μl hexosaminidase substrate (p-nitrophenol-N-acetyl-beta-D-glucosamide 7.5 mM [Sigma N-9376], sodium citrate 0.1 M, pH 5.0, 0.25% Triton X-100) was added to each well and the plates were incubated at 37° C. for 2-5 h, according to the cell type (hexosaminidase activity changes according to the cell type). […] Blank control was the same as described before.
Data analysis was performed calculating the percentage of cell viability normalized vs. the values of negative control, which was considered equal to 100%. The dose/response curve was fitted through the sigmoidal equation dose-response (variable slope) and the EC50 values were calculated as follow: Y=Bottom+(Top−Bottom)/(1+10^{[(Log EC50−X)*HillSlope]},

GBM-27 = system: GBM-27
Experimental: GMB-27, epithelial (glioblastoma, GMB), from surgical specimens from patients;
as §1, §5
as §3, with “instructions. […]” for “instructions.”

NCI-H524 = settings: 72 h
Experimental: NCI-H524, lung (small cell lung cancer, SCLC), ATCC-CRL-5831;
as §6
as §7, with “Tripan-Blue. […]” for “Tripan-Blue.”
as §3
MTT: 1. […] Absorbance at 570 nm was finally measured.
as §8, with “solution. […]” for “solution.”

NCI-H69 = settings: 72 h
Experimental: NCI-69, (small cell lung cancer, SCLC), ATCC-HTB-119;
as §1, §2, §3, §4

HL-60 = system: HL-60
Experimental: HL-60, promyeloblast (acute myelocytic leukemia, AML), ECACC: 98070106;
as §1, §2, §3, §4

With `CC(C)C[C@H](NC(=O)[C@H](CCCCN)NC(=O)[C@@H](NC(=O)[C@@H](N)CCCNC(=N)N)C(C)C)C(=O)N[C@H](C(=O)N[C@@H](CC(N)=O)C(=O)N[C@@H](CC(C)C)C(=O)NC1(C)CCCCCCC=CCCCC(C)(C(=O)N[C@H](C(=O)N2CCC[C@H]2C(N)=O)C(C)C)NC(=O)[C@H](CCC(=O)O)NC(=O)[C@H](CCCNC(=N)N)NC(=O)[C@H](CC(C)C)NC(=O)[C@H]([C@@H](C)O)NC(=O)[C@H](C)NC(=O)[C@H](Cc2ccccc2)NC1=O)C(C)C` (stereo partly shown) [H14] (H-RVKLVNL[X1]FATLRE[ξαMeNle(6-ylidene)]VP-NH2; staple 8-15; N-terminus and C-terminus assumed) the EC50 (MCF-7) was roughly 9 µM, the EC50 (GBM-18) was roughly 4 µM and the EC50 (NCI-H510A) was roughly 12 µM. The EC50 (GBM-27) was roughly 5 µM, the EC50 (NCI-H524) was roughly 12.5 µM and the EC50 (NCI-H69) was roughly 7 µM. It also gave an EC50 (HL-60) of roughly 14 µM.
